# According to patent US4539206A, “Topical compositions containing copper (II) complexes of 3,5-dioxo-pyrazolidine derivatives and methods of combatting inflammation with them” (Alcusal Incorporated Pty. Ltd., priority 1981, dated 1985):
# Like-named read-outs stand apart in the source and are kept apart here.
# Experiments:
# [1] = Bio-distribution of ^64 Cu(PB)2.x DMSO after topical application to rats; type: in vivo, male white rats; settings: for Bio-distribution of ^64 Cu as % of Original Applied, Faeces: assumed faecal output; for Bio-distribution of ^64 Cu as % of Original Applied, Blood (20 ml): assumed total blood volume; for Bio-distribution of ^64 Cu as % of Original Applied, Urine: assumed urine output
# Method: (1) The copper (II) phenylbutazone complex labelled with ^64 Cu was prepared as follows: Radioactive copper (II) acetate containing 3 mCi of ^64 Cu (A.A.E.C. Lucas Heights) was mixed with copper (II) acetate monohydrate (0.250 g), phenylbutazone (0.964 g) and dissolved in DMSO (10 ml). Glycerol (2.5 ml) was added later.
# Six male white rats (average weight 250 g) were anaesthetised with halothane and an area of skin (ca 20 cm^2) immediately below the neck was shaved with electric hair clippers. Two aliquots (each 0.75 ml) were applied to each rat, whilst anaesthetised, over a period of one hour.
# Each rat was placed separately in an experimental cage which permitted collection of both urine and faeces. At times of 6, 24 and 48 hours after topical application, two rats were anaesthetised with ether and euthenased by decapitation in a guillotine. Each organ except the thymus, spleen and the adrenals were cut into two samples for more accurate counting. This was done on a Packard automatic γ spectrometer for periods from 1 to 10 minutes.
# All counts were corrected to zero time per gram of wet tissue. After 24 and 48 hours, the faeces were dry and the activity in them is not recorded in FIG. 3.
# In Table 1, the results for the location in the rats of the ^64 Cu activity at 6, 24 and 48 hours after topical application are shown.
# [2] = system: hydroxylapatite-induced paw swelling; settings: applied ×2; hydroxylapatite 50 mg/ml, 0.15 ml injected
# Method: (§1) We have carried out assays for acute anti-inflammatory and anti-arthritic activities by procedures described previously in W. R. Walker, S. J. Beveridge and M. W. Whitehouse, "Anti-inflammatory Activity of a Dermally Applied Copper Salicylate Preparation (Alcusal)", Agents and Actions 10, 38 (1980).
# (§2) (a) Male Wistar rats were shaved (ca 20 cm^2) behind the neck and a solution of 0.1 M copper (II) acetate containing 0.25 M phenylbutazone in DMSO was applied (5 ml/kg). The first application was made 2.5 hr before injecting sodium carrageenan solution into the paw (a 0.1 ml injection delivering 1 mg in 0.15 M NaCl) to induce oedema. A second application of the copper phenylbutazone, if made, was at 1.5 hr before the carrageenan was injected.
# (§3) The swelling was measured unidimensionally as increase in paw thickness after 2 and 4 hrs using a micrometer screw gauge. Controls were treated with DMSO only.
# [3] = system: sodium carrageenan-induced paw oedema; settings: 5 ml/kg, 0.1 M copper (II) acetate containing 0.25 M phenylbutazone in DMSO, controls DMSO
# Method: as §1, §2, §3
# [4] = Cu^2+ + 2HPB = [Cu(PB)2] + 2H^+, room temperature, DMSO, absorbance at 430 nm
# Method: The following solutions were prepared in DMSO using stock solutions of 0.01 M copper (II) acetate (A) and 0.20 M phenylbutazone (B)
# and the spectra were measured using a Varian Techtron 634S UV-visible spectrophotometer and 1 cm cells.
# In FIG. 2, a plot of absorbance (arbitrary scale) at 430 nm versus molar ratio of phenylbutazone (HPB) to copper has been made. […]
# [5] = system: arthritis induced by arthritogenic adjuvant (M. tuberculosis in squalane); test: anti-arthritic activity in established adjuvant arthritis, topical application; type: in vivo, PVG x DA rats; settings: day 12 to day 16, once daily 5 ml/kg for 4 days, means ± standard error; for increase in paw thickness (mm), tail: DMSO controls 0.9 ± 0.2; for increase in paw thickness (mm), rear paws: DMSO controls 2.2 ± 0.1
# [6] = applied ×1 (2.5 hr before carrageenan)
# [7] = applied ×2 (2.5 and 1.5 hr before carrageenan)
smiles,measurement,setting,value
"CCCC[c-]1c(=O)n(-c2ccccc2)n(-c2ccccc2)c1=O.CCCC[c-]1c(=O)n(-c2ccccc2)n(-c2ccccc2)c1=O.[Cu+2] [[Cu(PB)2].x(DMSO), copper (II) di(phenylbutazone)]",absorption after topical application,[1]; result in words,readily enters the bloom stream
same,dermal penetration,[1]; result in words,excellent dermal penetration
same,% inhibition of paw swelling at 2 hr,[2],42%
same,% inhibition of paw swelling at 4 hr,[2],76%
same,% inhibition of paw swelling at 2 hr,[3]; [6],34%
same,% inhibition of paw swelling at 4 hr,[3]; [6],33%
same,% inhibition of paw swelling at 2 hr,[3]; [7],65%
same,% inhibition of paw swelling at 4 hr,[3]; [7],71%
same,"equilibrium constant, log K",[4]; listed as Cu(PB)2. xDMSO,~4.7
same,"equilibrium constant, log K",[4]; listed as [Cu(PB)2 ],~ 4.7
same,"increase in paw thickness (mm), tail",[5],0.3 ± 0.2 mm
same,"increase in paw thickness (mm), rear paws",[5],0.4 ± 0.1 mm
"CCCCC1C(=O)N(c2ccccc2)N(c2ccccc2)C1=O [HPB, phenylbutazone, reference compound]","increase in paw thickness (mm), tail",[5],0.3 ± 0.1 mm
same,"increase in paw thickness (mm), rear paws",[5],1.0 ± 0.2 mm
CCCC[c-]1c(=O)n(-c2ccccc2)n(-c2ccccc2)c1=O.CCCC[c-]1c(=O)n(-c2ccccc2)n(-c2ccccc2)c1=O.[64Cu+2] [^64 Cu(PB)2.x DMSO],"Bio-distribution of ^64 Cu as % of Original Applied, Adrenals",[1]; 6 h,-- (less than 0.004%)
same,"Bio-distribution of ^64 Cu as % of Original Applied, Brain",[1]; 6 h,0.02%
same,"Bio-distribution of ^64 Cu as % of Original Applied, Heart",[1]; 6 h,0.01%
same,"Bio-distribution of ^64 Cu as % of Original Applied, Kidney",[1]; 6 h,0.04%
same,"Bio-distribution of ^64 Cu as % of Original Applied, Liver",[1]; 6 h,6.22%
same,"Bio-distribution of ^64 Cu as % of Original Applied, Skin (application site)",[1]; 6 h,5.34%
same,"Bio-distribution of ^64 Cu as % of Original Applied, Spleen",[1]; 6 h,0.01%
same,"Bio-distribution of ^64 Cu as % of Original Applied, Thymus",[1]; 6 h,0.01%
same,"Bio-distribution of ^64 Cu as % of Original Applied, Faeces",[1]; 6 h,0.07%
same,"Bio-distribution of ^64 Cu as % of Original Applied, Blood (20 ml)",[1]; 6 h,0.09%
same,"Bio-distribution of ^64 Cu as % of Original Applied, Urine",[1]; 6 h,0.04%
same,"Bio-distribution of ^64 Cu as % of Original Applied, Adrenals",[1]; 24 h,-- (less than 0.004%)
same,"Bio-distribution of ^64 Cu as % of Original Applied, Brain",[1]; 24 h,0.01%
same,"Bio-distribution of ^64 Cu as % of Original Applied, Heart",[1]; 24 h,-- (less than 0.004%)
same,"Bio-distribution of ^64 Cu as % of Original Applied, Kidney",[1]; 24 h,0.04%
same,"Bio-distribution of ^64 Cu as % of Original Applied, Liver",[1]; 24 h,0.17%
same,"Bio-distribution of ^64 Cu as % of Original Applied, Skin (application site)",[1]; 24 h,3.81%
same,"Bio-distribution of ^64 Cu as % of Original Applied, Spleen",[1]; 24 h,-- (less than 0.004%)
same,"Bio-distribution of ^64 Cu as % of Original Applied, Thymus",[1]; 24 h,-- (less than 0.004%)
same,"Bio-distribution of ^64 Cu as % of Original Applied, Faeces",[1]; 24 h,28.9%
same,"Bio-distribution of ^64 Cu as % of Original Applied, Blood (20 ml)",[1]; 24 h,0.08%
same,"Bio-distribution of ^64 Cu as % of Original Applied, Urine",[1]; 24 h,0.21%
same,"Bio-distribution of ^64 Cu as % of Original Applied, Adrenals",[1]; 48 h,-- (less than 0.004%)
same,"Bio-distribution of ^64 Cu as % of Original Applied, Brain",[1]; 48 h,0.01%
same,"Bio-distribution of ^64 Cu as % of Original Applied, Heart",[1]; 48 h,-- (less than 0.004%)
same,"Bio-distribution of ^64 Cu as % of Original Applied, Kidney",[1]; 48 h,0.04%
same,"Bio-distribution of ^64 Cu as % of Original Applied, Liver",[1]; 48 h,0.15%
same,"Bio-distribution of ^64 Cu as % of Original Applied, Skin (application site)",[1]; 48 h,1.02%
same,"Bio-distribution of ^64 Cu as % of Original Applied, Spleen",[1]; 48 h,0.01%
same,"Bio-distribution of ^64 Cu as % of Original Applied, Thymus",[1]; 48 h,-- (less than 0.004%)
same,"Bio-distribution of ^64 Cu as % of Original Applied, Faeces",[1]; 48 h,49.9%
same,"Bio-distribution of ^64 Cu as % of Original Applied, Blood (20 ml)",[1]; 48 h,0.08%
same,"Bio-distribution of ^64 Cu as % of Original Applied, Urine",[1]; 48 h,0.40%
same,^64 Cu found in the faeces,"[1]; after two days, topical application, 2880 min",about 50%
same,clearance of ^64 Cu from the system,[1]; result in words,cleared from the system in several days
same,activity of ^64 Cu in the skin at the site of application,"[1]; result in words, 6 to 48 h",decreases linearly with time
